{"source": "patent US8394367B2", "about": "“IL6R/IL6 chimera for therapy of chemotherapy-induced peripheral neuropathy” (Yeda Research and Development Co., Ltd., priority 2004, dated 2013)", "key": {"[1]": {"system": "activated caspase-3 in DRG cultures", "assay": "Caspase-3 activation (apoptosis) in DRG cultures treated with vincristine", "type": "cell-based, mouse", "details": "10 nM vincristine for 5 days", "method": "(§1) IL-6R/IL-6 chimera (Chebath et al, 1997) was used to explore prevention against vincristine intoxication in vitro. For this purpose, cultures of dorsal root ganglia (DRG) from mouse embryos (day E17) in which neuronal outgrowth was stimulated by Nerve Growth Factor (NGF), were subsequently exposed to 10 nM vincristine which induces a progressive axonal degeneration process (Wang et al., J Neuropathol Exp Neurol. 2000 July; 59(7):599-606). […] Neurodegeneration was further examined by monitoring the proteolytic activation of caspase-3, which denotes the early stages of apoptosis in various neuropathies (Russell et al, Neurobiol Dis. 1999 October; 6(5):347-63).\n(§2) DRGs were prepared as detailed before (Haggiag et al, 1999, 2001) from embryos of (C57BL/6×129Sv) F1 mice. In some experiments, corresponding IL-6−/− mutant mice were used (Mendel et al, 1998). The DRGs were seeded onto glass coverslips (precoated with a solution of 20 μg/ml poly-D-lysine, 250 μg/ml fibronectin), which were placed in 12-well Costar plates. The regular culture medium was 0.5 ml DMEM/F12 medium with 1% N2 supplement, 10% fetal bovine serum, 2% horse serum, 1.4 mM glutamine (all from Gibco/Invitrogen) and 50 ng/ml NGF (2.5S; Alomone Labs, Jerusalem, Israel). Cultures were maintained at 37° C., 5% CO2 and medium replaced every third day. […]"}, "[2]": {"system": "dorsal root ganglia (DRG) cultures", "assay": "Regeneration of DRG cultures after vincristine removal (βIII-tubulin and GFAP immunostaining)", "type": "cell-based, mouse", "details": "5 nM vincristine day 5 to 10, 6 more days without drug; IL-6-/- DRG", "description": "I further investigated whether the IL-6R/IL-6 could have neural regenerative effects by adding IL-6R/IL-6 after the action of vincristine had taken place. Cultures in which the axonal network was formed in the presence of NGF for 5 days were either continued for another 11 days without or with IL-6R/IL-6 (Panel A and B, respectively), or treated for 5 days by vincristine at which time vincristine was removed and culture continued for 6 more days (panels C-F). […] These experiments indicate that IL-6R/IL-6 chimera promotes regeneration of neural and glial cells when added after exposure to the chemotherapeutic agent.\nas §2"}, "[3]": {"system": "dorsal root ganglia (DRG) cultures", "assay": "Protection of the axonal network in DRG cultures intoxicated by vincristine (βIII-tubulin immunostaining)", "type": "cell-based, mouse", "details": "10 nM vincristine for 2 days; βIII-tubulin staining", "method": "as §1, §2"}, "[4]": {"system": "peripheral neuropathy caused by carboplatin/paclitaxel", "details": "at the doses and regime tested; cited from earlier work"}}, "note": "Entries after “also recorded” stand apart in the source; their conditions may differ."}
{"compound": "CC[C@]1(O)C[C@H]2CN(CCc3c([nH]c4ccccc34)[C@@](C(=O)OC)(c3cc4c(cc3OC)N(C=O)[C@H]3[C@@](O)(C(=O)OC)[C@H](OC(C)=O)[C@]5(CC)C=CCN6CC[C@]43[C@@H]65)C2)C1", "note": "[vincristine]", "values": [{"measurement": "Caspase-3 activation caused by vincristine", "setting": "[1]", "value": "Positive reaction to antibodies against activated caspase-3"}, {"measurement": "Degeneration of the axonal network 6 days after vincristine removal", "setting": "[2]", "value": "extensive degeneration of the axonal network was still observed; also recorded: extensive degeneration of the axonal network was still present"}, {"measurement": "Loss of axons in DRG outgrowth caused by vincristine", "setting": "[3]", "value": "considerable loss of axons; also recorded: extensive neurodegeneration"}]}
{"compound": "LIF: recombinant leukemia inhibitor factor (LIF), another gp130 activator", "values": [{"measurement": "Prevention of CIPN in clinical trials", "setting": "[4]", "value": "ineffective"}]}
